Measured values published in patent US20260297085A1, “1 H-PYRROLO[2,3-B]PYRIDIN-4-YL]-2-OXOPYRROLIDINE-3-CARBONITRILE DERIVATIVES AS TYROSINE KINASE 2 (TYK2) INHIBITORS FOR THE TREATMENT OF INFLAMMATORY DISEASES” (BIOGEN MA INC., priority 2023, published 2026).
Counter-ions that a name gives are not always drawn.

Key:
[1] = target: T1, human TYK2 kinase domain (JH1) (Homo sapiens, UniProt P29597); test: JH1 biochemical assay for TYK2 (ADP-Glo kinase assay, recombinant JH1 catalytic domain, JAK3-974 peptide, 10 μM ATP)
T1 construct: recombinantly generated catalytic kinase (also known as JH1) domain of human JAK1, JAK2, JAK3 and TYK2
T1 sequence (P29597 897-1176 limits assumed): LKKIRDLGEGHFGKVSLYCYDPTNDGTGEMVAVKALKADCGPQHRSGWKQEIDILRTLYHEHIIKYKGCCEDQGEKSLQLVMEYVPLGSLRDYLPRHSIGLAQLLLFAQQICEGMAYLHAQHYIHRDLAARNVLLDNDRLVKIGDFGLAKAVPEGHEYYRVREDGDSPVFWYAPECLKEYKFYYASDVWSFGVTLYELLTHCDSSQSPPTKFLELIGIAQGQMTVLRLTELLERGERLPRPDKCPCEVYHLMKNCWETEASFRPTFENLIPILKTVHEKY
Method in brief: (§1)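 Kinase 4 nM JAK1 / 0.2 nM JAK2 / 0.3 nM JAK3 / 2 nM TYK2; 50 μM peptide; 100 min. Unused ATP depleted, ADP→ATP, luciferase luminescence. 11-pt 3-fold series from 10 or 1 μM; normalized, 4PL fit → IC50.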

[2] = target: T2, human JAK3 kinase domain (JH1) (Homo sapiens, UniProt P52333); test: JH1 biochemical assay for JAK3 (ADP-Glo kinase assay, recombinant JH1 catalytic domain, JAK3-974 peptide, 4 μM ATP)
T2 construct: recombinantly generated catalytic kinase (also known as JH1) domain of human JAK1, JAK2, JAK3 and TYK2
Method in brief: as §1

[3] = target: JAK2 kinase activity on STAT5 in TF1 cells (Homo sapiens, UniProt O60674); test: pSTAT5 cell assay (MSD; TF1 cells, 30 ng/mL IL-3 stimulation); type: cell-based; details: 30 ng/mL IL-3, 15 minutes
Method in brief: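 Serum-starved TF1 cells with native JAK2/STAT5 were pretreated 1 h with compound (10-point four-fold dilutions from 10 μM), then stimulated 15 min with 30 ng/mL IL-3. pSTAT5 in lysates quantified by MSD immunoassay; normalized percent activity fitted to a 4-parameter logistic curve for IC50.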

[4] = target: T3, human JAK2 kinase domain (JH1) (Homo sapiens, UniProt O60674); test: JH1 biochemical assay for JAK2 (ADP-Glo kinase assay, recombinant JH1 catalytic domain, JAK3-974 peptide, 15 μM ATP)
T3 construct: recombinantly generated catalytic kinase (also known as JH1) domain of human JAK1, JAK2, JAK3 and TYK2
Method in brief: as §1

[5] = target: Tyk2 kinase activity on STAT4 in NK92 cells (Homo sapiens, UniProt P29597); test: pSTAT4 cell assay (MSD; NK92 cells, 30 ng/mL IL2 stimulation); type: cell-based; details: 30 ng/mL IL2, 15 minutes
Method in brief: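 NK92, serum-starved; cpd 1 hr, 10-pt 4-fold from 10 μM; IL2 30 ng/mL 15 min; lyse; MSD with anti-STAT4 Abs; IC50 by 4-PL fit.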

[6] = target: JAK1 kinase activity on STAT3 in TF1 cells (Homo sapiens, UniProt P23458); test: pSTAT3 cell assay (MSD; TF1 cells, 30 ng/mL IL-6 stimulation); type: cell-based; details: 30 ng/mL IL-6, 15 minutes
Method in brief: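 Serum-starved TF1 cells were pretreated with compound for 1 hour (10-point, four-fold dilutions from 10 μM), then stimulated with IL-6 for 15 minutes. Lysates were assayed for pSTAT3 by MSD with anti-STAT3 antibodies; IC50 came from a 4-parameter logistic fit of normalized percent activity.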

[7] = target: T4, human JAK1 kinase domain (JH1) (Homo sapiens, UniProt P23458); test: JH1 biochemical assay for JAK1 (ADP-Glo kinase assay, recombinant JH1 catalytic domain, JAK3-342 peptide, 35 μM ATP)
T4 construct: recombinantly generated catalytic kinase (also known as JH1) domain of human JAK1, JAK2, JAK3 and TYK2
Method in brief: as §1

Chain of JAK1 kinase activity on STAT3 in TF1 cells (P23458 whole entry): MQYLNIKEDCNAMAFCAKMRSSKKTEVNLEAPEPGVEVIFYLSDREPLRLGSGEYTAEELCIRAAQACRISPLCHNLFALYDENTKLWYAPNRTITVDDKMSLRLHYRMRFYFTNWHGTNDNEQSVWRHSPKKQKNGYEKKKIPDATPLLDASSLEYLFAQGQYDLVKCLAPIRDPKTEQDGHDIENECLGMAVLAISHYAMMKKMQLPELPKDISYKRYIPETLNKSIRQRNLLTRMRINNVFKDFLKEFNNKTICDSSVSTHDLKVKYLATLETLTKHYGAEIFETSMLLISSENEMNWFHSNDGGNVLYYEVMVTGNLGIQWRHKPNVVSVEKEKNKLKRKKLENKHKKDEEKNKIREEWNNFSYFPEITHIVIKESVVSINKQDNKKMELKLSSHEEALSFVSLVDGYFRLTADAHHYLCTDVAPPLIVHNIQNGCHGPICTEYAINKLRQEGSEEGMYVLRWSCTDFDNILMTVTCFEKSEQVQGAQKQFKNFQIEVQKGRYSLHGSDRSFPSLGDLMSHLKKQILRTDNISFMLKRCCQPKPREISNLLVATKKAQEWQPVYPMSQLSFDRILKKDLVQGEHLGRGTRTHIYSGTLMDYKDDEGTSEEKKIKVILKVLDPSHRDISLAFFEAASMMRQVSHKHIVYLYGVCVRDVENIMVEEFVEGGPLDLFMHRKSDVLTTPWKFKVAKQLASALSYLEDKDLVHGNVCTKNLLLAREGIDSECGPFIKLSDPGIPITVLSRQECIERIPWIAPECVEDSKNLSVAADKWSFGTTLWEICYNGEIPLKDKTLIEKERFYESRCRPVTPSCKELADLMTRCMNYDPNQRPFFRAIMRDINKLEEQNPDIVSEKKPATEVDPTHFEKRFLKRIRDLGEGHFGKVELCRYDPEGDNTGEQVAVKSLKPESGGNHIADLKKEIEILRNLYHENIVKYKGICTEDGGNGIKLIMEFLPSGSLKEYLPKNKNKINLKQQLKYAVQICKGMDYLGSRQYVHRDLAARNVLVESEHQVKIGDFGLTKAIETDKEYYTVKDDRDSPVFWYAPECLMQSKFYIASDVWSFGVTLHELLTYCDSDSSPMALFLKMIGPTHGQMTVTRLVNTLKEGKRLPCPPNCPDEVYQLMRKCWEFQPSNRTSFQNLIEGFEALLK
Chain of JAK2 kinase activity on STAT5 in TF1 cells (O60674 whole entry): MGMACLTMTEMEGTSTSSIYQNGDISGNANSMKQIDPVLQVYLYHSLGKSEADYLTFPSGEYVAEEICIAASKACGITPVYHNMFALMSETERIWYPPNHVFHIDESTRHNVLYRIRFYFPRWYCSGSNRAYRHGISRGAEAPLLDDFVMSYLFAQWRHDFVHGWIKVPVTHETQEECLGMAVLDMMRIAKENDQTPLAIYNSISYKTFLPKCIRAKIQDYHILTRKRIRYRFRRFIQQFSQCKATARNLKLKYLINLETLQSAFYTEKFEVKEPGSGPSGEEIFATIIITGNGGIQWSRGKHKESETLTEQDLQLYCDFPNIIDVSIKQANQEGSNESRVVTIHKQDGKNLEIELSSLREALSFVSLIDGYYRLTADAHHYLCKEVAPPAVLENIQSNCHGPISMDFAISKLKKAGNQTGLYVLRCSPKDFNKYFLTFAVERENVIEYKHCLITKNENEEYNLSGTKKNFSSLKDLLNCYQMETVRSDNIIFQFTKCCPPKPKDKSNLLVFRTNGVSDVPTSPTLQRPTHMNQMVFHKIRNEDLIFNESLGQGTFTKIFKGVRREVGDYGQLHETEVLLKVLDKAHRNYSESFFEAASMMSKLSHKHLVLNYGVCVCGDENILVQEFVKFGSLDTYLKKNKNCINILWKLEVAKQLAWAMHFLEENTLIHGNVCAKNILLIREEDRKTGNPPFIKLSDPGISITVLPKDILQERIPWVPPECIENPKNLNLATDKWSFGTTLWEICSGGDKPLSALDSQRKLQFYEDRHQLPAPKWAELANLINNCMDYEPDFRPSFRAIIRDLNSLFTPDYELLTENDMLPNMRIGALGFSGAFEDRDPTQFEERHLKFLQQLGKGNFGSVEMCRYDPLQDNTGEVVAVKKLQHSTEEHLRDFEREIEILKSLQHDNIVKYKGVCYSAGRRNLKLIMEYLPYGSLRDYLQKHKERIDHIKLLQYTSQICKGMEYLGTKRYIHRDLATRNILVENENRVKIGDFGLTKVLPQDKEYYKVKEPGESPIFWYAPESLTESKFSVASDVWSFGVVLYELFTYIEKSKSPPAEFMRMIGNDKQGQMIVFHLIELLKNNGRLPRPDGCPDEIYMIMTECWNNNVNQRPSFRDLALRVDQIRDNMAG
T4 sequence (P23458 875-1153 limits assumed): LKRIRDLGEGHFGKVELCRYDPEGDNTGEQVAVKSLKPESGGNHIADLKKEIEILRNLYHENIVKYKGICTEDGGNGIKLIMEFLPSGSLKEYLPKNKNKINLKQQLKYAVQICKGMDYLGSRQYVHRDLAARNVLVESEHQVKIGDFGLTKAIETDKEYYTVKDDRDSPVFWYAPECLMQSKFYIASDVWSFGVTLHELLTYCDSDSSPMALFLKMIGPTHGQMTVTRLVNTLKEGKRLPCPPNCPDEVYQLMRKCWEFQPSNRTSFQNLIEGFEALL
T2 sequence (P52333 822-1111 limits assumed): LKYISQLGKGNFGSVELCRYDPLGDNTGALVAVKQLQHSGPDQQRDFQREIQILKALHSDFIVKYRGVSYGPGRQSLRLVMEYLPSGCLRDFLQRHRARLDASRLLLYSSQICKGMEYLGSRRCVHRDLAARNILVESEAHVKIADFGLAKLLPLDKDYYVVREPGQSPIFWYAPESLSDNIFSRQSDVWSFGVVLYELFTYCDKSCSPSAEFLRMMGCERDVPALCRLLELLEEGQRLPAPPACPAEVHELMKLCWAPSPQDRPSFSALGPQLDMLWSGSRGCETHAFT
T3 sequence (O60674 849-1124 limits assumed): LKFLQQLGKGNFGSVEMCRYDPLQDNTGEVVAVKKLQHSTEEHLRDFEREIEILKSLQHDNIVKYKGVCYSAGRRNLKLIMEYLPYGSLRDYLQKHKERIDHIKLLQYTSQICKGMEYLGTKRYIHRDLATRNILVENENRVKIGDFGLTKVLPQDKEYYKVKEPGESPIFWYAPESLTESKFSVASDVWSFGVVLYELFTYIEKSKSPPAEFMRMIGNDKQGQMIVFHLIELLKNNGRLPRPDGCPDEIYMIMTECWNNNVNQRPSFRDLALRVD
Chain of Tyk2 kinase activity on STAT4 in NK92 cells (P29597 whole entry): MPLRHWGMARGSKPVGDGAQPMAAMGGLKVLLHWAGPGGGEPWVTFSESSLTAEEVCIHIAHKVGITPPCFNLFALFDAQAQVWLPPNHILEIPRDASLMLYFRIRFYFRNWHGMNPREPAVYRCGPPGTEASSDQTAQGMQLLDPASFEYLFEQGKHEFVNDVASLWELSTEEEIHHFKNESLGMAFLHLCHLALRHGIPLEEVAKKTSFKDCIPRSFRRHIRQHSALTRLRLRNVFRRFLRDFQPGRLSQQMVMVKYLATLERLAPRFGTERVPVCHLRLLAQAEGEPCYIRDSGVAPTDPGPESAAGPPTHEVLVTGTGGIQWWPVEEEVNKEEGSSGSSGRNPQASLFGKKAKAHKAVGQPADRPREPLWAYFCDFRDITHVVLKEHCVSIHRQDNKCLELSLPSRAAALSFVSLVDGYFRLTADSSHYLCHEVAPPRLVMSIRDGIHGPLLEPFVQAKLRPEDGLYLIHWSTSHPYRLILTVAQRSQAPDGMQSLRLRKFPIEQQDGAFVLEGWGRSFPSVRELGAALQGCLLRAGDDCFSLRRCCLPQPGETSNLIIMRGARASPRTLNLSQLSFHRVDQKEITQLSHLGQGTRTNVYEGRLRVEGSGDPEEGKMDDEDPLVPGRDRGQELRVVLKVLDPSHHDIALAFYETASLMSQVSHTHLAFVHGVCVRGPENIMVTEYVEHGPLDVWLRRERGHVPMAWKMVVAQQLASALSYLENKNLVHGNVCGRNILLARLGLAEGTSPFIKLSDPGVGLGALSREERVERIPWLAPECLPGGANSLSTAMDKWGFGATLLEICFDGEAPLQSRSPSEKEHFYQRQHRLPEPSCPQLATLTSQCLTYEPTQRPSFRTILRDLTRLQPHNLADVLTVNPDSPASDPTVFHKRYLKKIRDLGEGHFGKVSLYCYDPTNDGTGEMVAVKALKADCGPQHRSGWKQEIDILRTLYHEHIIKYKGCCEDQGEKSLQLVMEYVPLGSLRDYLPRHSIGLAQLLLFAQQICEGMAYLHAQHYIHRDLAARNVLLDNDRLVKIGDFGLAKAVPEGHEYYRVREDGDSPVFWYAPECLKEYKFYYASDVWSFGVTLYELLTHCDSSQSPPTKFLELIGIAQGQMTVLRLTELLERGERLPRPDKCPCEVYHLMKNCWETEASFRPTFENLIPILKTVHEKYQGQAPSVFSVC

SMILES	IC50 ([1]; JH1 kinase domain, ADP-Glo) [nM]	IC50 ([2]; JH1 kinase domain, ADP-Glo) [nM]	IC50 [3] [nM]	IC50 ([4]; JH1 kinase domain, ADP-Glo) [nM]	IC50 [5] [nM]	IC50 [6] [nM]	IC50 ([7]; JH1 kinase domain, ADP-Glo) [nM]	IC50 ([1]; TYK2 JH1, ADP-Glo) [nM]	IC50 ([2]; JAK3 JH1, ADP-Glo) [nM]	IC50 ([4]; JAK2 JH1, ADP-Glo) [nM]	IC50 ([7]; JAK1 JH1, ADP-Glo) [nM]
C[C@@H]1CN(c2ccnn3cc(-c4ccc(OC(F)F)nc4)cc23)C(=O)[C@]1(C#N)C1CC1 [Example 176, (3R,4S)-3-cyclopropyl-1-(6-(6-(difluoromethoxy)pyridin-3-yl)pyrrolo[1,2-b]pyridazin-4-yl)-4-methyl-2-oxopyrrolidine-3-carbonitrile]	5 to 20	100 to 1000	> 10000	1000 to 5000	> 100	5000 to 10000	100 to 1000				
C[C@@H]1CN(c2nc(-c3ccnc(C#N)c3)cn3nccc23)C(=O)[C@]1(C#N)C1CC1 [Example 197, 4-(4-((3R,4S)-3-cyano-3-cyclopropyl-4-methyl-2-oxopyrrolidin-1-yl)pyrazolo[1,5-a]pyrazin-6-yl)picolinonitrile]	5 to 20	< 100	> 10000	100 to 1000	> 100	1000 to 5000	< 100				
C[C@@H]1CN(c2nc(-c3cnn([C@H]4CO[C@@H]4C)c3)cn3ncc(F)c23)C(=O)[C@]1(C#N)C1CC1 (relative stereo) [Example 306, (3R,4S)-3-cyclopropyl-1-(3-fluoro-6-(1-((2R,3 S)-2-methyloxetan-3-yl)-1H-pyrazol-4-yl)pyrazolo[1,5-a]pyrazin-4-yl)-4-methyl-2-oxopyrrolidine-3-carbonitrile and (3R,4S)-3-cyclopropyl-1-(3-fluoro-6-(1-((2S,3R)-2-methyloxetan-3-yl)-1H-pyrazol-4-yl)pyrazolo[1,5-a]pyrazin-4-yl)-4-methyl-2-oxopyrrolidine-3-carbonitrile]			1000 to 5000		20 to 50	100 to 1000		< 5	< 100	< 100	< 100
C[C@@H]1CN(c2ccnn3cc(-n4ccnc4)cc23)C(=O)[C@]1(C#N)C1CC1 [Example 336, (3R,4S)-1-(6-(1H-imidazol-1-yl)pyrrolo[1,2-b]pyridazin-4-yl)-3-cyclopropyl-4-methyl-2-oxopyrrolidine-3-carbonitrile]			> 10000		> 100	> 10000		20 to 50	100 to 1000	1000 to 5000	100 to 1000
C[C@@H]1CN(c2ccnn3cc(-c4cncc(O)c4)cc23)C(=O)[C@]1(C#N)C1CC1 [Example 53, (3R,4S)-3-cyclopropyl-1-(6-(5-hydroxypyridin-3-yl)pyrrolo[1,2-b]pyridazin-4-yl)-4-methyl-2-oxopyrrolidine-3-carbonitrile]	5 to 20	100 to 1000	> 10000	100 to 1000	> 100	5000 to 10000	100 to 1000				
CNC(=O)c1ccc(-c2cc3c(N4C[C@@H](C)[C@@](C#N)(C5CC5)C4=O)ccnn3c2)cn1 [Example 58, 5-(4-((3R,4S)-3-cyano-3-cyclopropyl-4-methyl-2-oxopyrrolidin-1-yl)pyrrolo[1,2-b]pyridazin-6-yl)-N-methylpicolinamide]	5 to 20	100 to 1000	> 10000	100 to 1000	50 to 100	1000 to 5000	100 to 1000				
C[C@@H]1CN(c2ncnn3cc(-c4cnn(C)c4)cc23)C(=O)[C@]1(C#N)C1CC1 [Example 180, (3R,4S)-3-cyclopropyl-4-methyl-1-(6-(1-methyl-1H-pyrazol-4-yl)pyrrolo[2,1-f][1,2,4]triazin-4-yl)-2-oxopyrrolidine-3-carbonitrile]	> 100	> 10000	5000 to 10000	5000 to 10000	> 100	1000 to 5000	> 10000				
Cc1ccc(-c2cn3nccc3c(N3C[C@@H](C)[C@@](C#N)(C4CC4)C3=O)n2)cn1 [Example 233, (3R,4S)-3-cyclopropyl-4-methyl-1-(6-(6-methylpyridin-3-yl)pyrazolo[1,5-a]pyrazin-4-yl)-2-oxopyrrolidine-3-carbonitrile trifluoroacetate]			1000 to 5000		> 100	1000 to 5000		< 5	< 100	100 to 1000	< 100
C[C@@H]1CN(c2ccnn3cc(-c4ccc(=O)n(C)c4)cc23)C(=O)[C@]1(C#N)C1CC1 [Example 83, (3R,4S)-3-cyclopropyl-4-methyl-1-(6-(1-methyl-6-oxo-1,6-dihydropyridin-3-yl)pyrrolo[1,2-b]pyridazin-4-yl)-2-oxopyrrolidine-3-carbonitrile]	< 5	100 to 1000	5000 to 10000	100 to 1000	50 to 100	1000 to 5000	< 100				
C[C@@H]1CN(c2ccnn3cc(-c4cc5n(n4)CCO5)cc23)C(=O)[C@]1(C#N)C1CC1 [Example 110, (3R,4S)-3-cyclopropyl-1-(6-(2,3-dihydropyrazolo[5,1-b]oxazol-6-yl)pyrrolo[1,2-b]pyridazin-4-yl)-4-methyl-2-oxopyrrolidine-3-carbonitrile trifluoroacetate]	5 to 20	100 to 1000	> 10000	100 to 1000	> 100	> 10000	100 to 1000				

The remaining lines, values ahead:

IC50 ([1]; JH1 kinase domain, ADP-Glo) [nM]	IC50 ([2]; JH1 kinase domain, ADP-Glo) [nM]	IC50 [3] [nM]	IC50 ([4]; JH1 kinase domain, ADP-Glo) [nM]	IC50 [5] [nM]	IC50 [6] [nM]	IC50 ([7]; JH1 kinase domain, ADP-Glo) [nM]	IC50 ([1]; TYK2 JH1, ADP-Glo) [nM]	IC50 ([2]; JAK3 JH1, ADP-Glo) [nM]	IC50 ([4]; JAK2 JH1, ADP-Glo) [nM]	IC50 ([7]; JAK1 JH1, ADP-Glo) [nM]	SMILES
		100 to 1000		20 to 50	100 to 1000		< 5	< 100	< 100	< 100	C[C@@H]1CN(c2nc(-c3cnn(-c4ccncc4)c3)cn3nccc23)C(=O)[C@]1(C#N)C1CC1 [Example 295, (3R,4S)-3-cyclopropyl-4-methyl-2-oxo-1-(6-(1-(pyridin-4-yl)-1H-pyrazol-4-yl)pyrazolo[1,5-a]pyrazin-4-yl)pyrrolidine-3-carbonitrile]
		< 100		5 to 20	< 100		< 5	< 100	< 100	< 100	C[C@@H]1CN(c2nc(-c3cnn(C)c3)cc3ncsc23)C(=O)[C@]1(C#N)C1CC1 [Example 284, (3R,4S)-3-cyclopropyl-4-methyl-1-(6-(1-methyl-1H-pyrazol-4-yl)thiazolo[5,4-c]pyridin-4-yl)-2-oxopyrrolidine-3-carbonitrile]
		> 10000		> 100	> 10000		20 to 50	100 to 1000	1000 to 5000	100 to 1000	C[C@@H]1CN(c2ccnn3cc(-n4cccn4)cc23)C(=O)[C@]1(C#N)C1CC1 [Example 335, (3R,4S)-1-(6-(1H-pyrazol-1-yl)pyrrolo[1,2-b]pyridazin-4-yl)-3-cyclopropyl-4-methyl-2-oxopyrrolidine-3-carbonitrile]
		5000 to 10000		> 100	1000 to 5000		5 to 20	100 to 1000	100 to 1000	< 100	C[C@@H]1CN(c2nc(-c3ccc(S(C)(=O)=O)nc3)cn3nccc23)C(=O)[C@]1(C#N)C1CC1 [Example 257, (3R,4S)-3-cyclopropyl-4-methyl-1-(6-(6-(methylsulfonyl)pyridin-3-yl)pyrazolo[1,5-a]pyrazin-4-yl)-2-oxopyrrolidine-3-carbonitrile trifluoroacetate]
		100 to 1000		50 to 100	100 to 1000		< 5	< 100	< 100	< 100	C[C@@H]1CN(c2ccnn3cc(-c4cnn(CC5(C#N)CC5)c4)cc23)C(=O)[C@]1(C#N)C1CC1 [Example 324, (3R,4S)-1-(6-(1-((1-cyanocyclopropyl)methyl)-1H-pyrazol-4-yl)pyrrolo[1,2-b]pyridazin-4-yl)-3-cyclopropyl-4-methyl-2-oxopyrrolidine-3-carbonitrile]
		> 10000		> 100	1000 to 5000		5 to 20	100 to 1000	1000 to 5000	100 to 1000	Cc1cc(-n2nc(N3C[C@@H](C)[C@@](C#N)(C4CC4)C3=O)c3ccncc32)ccn1 [Example 281, (3R,4S)-3-cyclopropyl-4-methyl-1-(1-(2-methylpyridin-4-yl)-1H-pyrazolo[3,4-c]pyridin-3-yl)-2-oxopyrrolidine-3-carbonitrile]
